This passage reports EC50 results from patent publication US12037344B2, “NLRP3 modulators” (INNATE TUMOR IMMUNITY, INC., priority 2018, dated 2024).

In test [1] the test system is THP-1 cells. Kind of test: Measurement of IL-1β production, hTRF protocol (second alternative procedure), THP-1 cells. It counts as cell-based, human. The following applies: human cells, read-out: NLRP3 hILIB EC50. Summed up: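 THP-1 cells differentiated overnight with 50 ng/ml PMA, then plated at 50,000 cells/well in RPMI with 2% FBS onto serial compound dilutions (top final concentration 10 μM) for 2 hours at 37° C. Supernatant IL-1β measured by hTRF (antibodies at 1:40, overnight at 4° C), read at 665/615 nm against a standard curve.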

Test [2] concerns the target T1, TLR7 (Homo sapiens, UniProt Q9NYK1).
T1 construct: human HEK-Blue cells co-expressing a TLR7 or TLR8 gene
T1 sequence (Q9NYK1 27-1049): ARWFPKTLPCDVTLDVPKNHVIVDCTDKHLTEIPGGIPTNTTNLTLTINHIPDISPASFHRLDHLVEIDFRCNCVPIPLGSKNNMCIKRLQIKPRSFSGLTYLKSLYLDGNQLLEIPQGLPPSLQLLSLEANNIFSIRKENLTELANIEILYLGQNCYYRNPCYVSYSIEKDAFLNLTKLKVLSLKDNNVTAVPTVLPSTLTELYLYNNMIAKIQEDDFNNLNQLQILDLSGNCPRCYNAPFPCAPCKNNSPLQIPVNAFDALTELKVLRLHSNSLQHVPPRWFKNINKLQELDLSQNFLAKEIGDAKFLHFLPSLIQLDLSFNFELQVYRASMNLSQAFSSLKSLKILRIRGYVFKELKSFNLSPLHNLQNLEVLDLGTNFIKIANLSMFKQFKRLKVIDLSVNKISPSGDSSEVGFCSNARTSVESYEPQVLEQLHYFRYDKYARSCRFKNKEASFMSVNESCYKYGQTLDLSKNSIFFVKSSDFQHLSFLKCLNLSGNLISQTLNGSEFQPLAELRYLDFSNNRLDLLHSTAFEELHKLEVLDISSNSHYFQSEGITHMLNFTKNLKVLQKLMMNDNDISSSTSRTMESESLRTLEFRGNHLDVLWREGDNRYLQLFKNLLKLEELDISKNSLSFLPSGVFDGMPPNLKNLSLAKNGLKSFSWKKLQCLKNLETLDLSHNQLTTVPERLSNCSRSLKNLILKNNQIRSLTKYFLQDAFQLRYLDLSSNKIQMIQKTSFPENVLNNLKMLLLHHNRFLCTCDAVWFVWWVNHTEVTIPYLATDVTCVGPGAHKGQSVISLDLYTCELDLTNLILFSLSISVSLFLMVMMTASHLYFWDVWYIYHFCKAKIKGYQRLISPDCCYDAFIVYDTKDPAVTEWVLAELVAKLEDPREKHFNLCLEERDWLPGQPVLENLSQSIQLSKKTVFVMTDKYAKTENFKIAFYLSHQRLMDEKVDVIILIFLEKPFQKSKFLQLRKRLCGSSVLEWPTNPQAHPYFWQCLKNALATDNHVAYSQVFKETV
The test is described as follows: In vitro human TLR7 binding reporter assay (HEK-Blue, NF-kB/AP1-inducible SEAP). The note with it: activity range, read-out: TLR7 Agonist EC50. Type of test: cell-based. Summed up: (§1)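 EC50s come from NF-kB/AP1-driven SEAP secretion in HEK-Blue cells expressing TLR7 or TLR8, measured with Quanti-Blue after an 18 h compound incubation. Maximal response is defined by a 50 μM reference standard.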
In general terms: Reporter assays use an easily measured gene product as a stand-in for the process of interest.

Test [3] addresses T2, TLR8 (Homo sapiens, UniProt Q9NR97).
T2 construct: human HEK-Blue cells co-expressing a TLR7 or TLR8 gene
T2 sequence (Q9NR97 27-1041): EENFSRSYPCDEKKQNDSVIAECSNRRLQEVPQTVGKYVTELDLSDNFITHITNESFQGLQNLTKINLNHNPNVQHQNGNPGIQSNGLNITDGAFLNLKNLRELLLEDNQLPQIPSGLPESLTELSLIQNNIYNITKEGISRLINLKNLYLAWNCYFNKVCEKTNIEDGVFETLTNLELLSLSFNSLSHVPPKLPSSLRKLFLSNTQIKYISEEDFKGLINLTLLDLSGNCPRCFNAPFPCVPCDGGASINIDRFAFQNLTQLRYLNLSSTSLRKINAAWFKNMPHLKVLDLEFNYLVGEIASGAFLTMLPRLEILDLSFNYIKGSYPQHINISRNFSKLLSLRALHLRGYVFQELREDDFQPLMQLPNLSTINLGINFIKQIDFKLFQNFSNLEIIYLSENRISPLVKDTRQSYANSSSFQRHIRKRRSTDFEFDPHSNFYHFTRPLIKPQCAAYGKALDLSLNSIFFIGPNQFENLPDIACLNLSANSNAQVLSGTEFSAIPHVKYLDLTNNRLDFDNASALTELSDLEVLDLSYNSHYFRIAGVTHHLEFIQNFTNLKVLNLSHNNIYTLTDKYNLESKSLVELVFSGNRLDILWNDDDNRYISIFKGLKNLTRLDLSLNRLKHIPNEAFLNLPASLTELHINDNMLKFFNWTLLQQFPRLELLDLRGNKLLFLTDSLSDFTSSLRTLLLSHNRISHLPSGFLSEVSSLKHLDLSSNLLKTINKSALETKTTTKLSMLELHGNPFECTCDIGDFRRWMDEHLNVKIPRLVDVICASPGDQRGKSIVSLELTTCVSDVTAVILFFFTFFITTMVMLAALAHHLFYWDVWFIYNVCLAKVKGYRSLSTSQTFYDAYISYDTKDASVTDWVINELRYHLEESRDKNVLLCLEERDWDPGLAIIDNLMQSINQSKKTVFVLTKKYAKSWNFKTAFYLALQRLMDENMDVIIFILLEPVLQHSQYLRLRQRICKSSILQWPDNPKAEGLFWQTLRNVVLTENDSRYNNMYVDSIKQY
The test is described as follows: In vitro human TLR8 binding reporter assay (HEK-Blue, NF-kB/AP1-inducible SEAP). The note with it: activity range, read-out: TLR8 Agonist EC50. Type of test: cell-based. Summed up:
as §1

The mark [4] stands for this setting: Homo sapiens, THP-1, IL-1β production.

Read-outs that look alike come from different tables or passages of the source. Some results are limits rather than exact numbers.

As usually defined, the EC50 is the concentration giving half of the maximal effect. For the molecule `CNC(=O)CCn1cc2c(n1)c(N)nc1cc(-c3cc[nH]n3)ccc12` [Example 535], the EC50 in test [1] (setting [4]) was 0.96 µM; in test [2], over 100 µM; in test [3], over 100 µM.

For `COCCNC(=O)Cn1cc2c(n1)c(N)nc1cc(-c3cc[nH]n3)ccc12` [Example 536], the EC50 in test [1] (setting [4]) was 3.58 µM; in test [2], over 100 µM; in test [3], over 100 µM.

As to `CC(C)(CO)NC(=O)Cn1cc2c(n1)c(N)nc1cc(-c3cc[nH]n3)ccc12` [Example 537], the EC50 in test [1] (setting [4]) is 2.75 µM; in test [2], over 100 µM; in test [3], over 100 µM.

Regarding `Nc1nc2cc(-c3cc[nH]n3)ccc2c2cn(CC(=O)NCC(F)F)nc12` [Example 538], the EC50 in test [1] (setting [4]) was 0.6 µM; in test [2], over 100 µM; in test [3], over 100 µM.

Regarding `CC(Cn1cc2c(n1)c(N)nc1cc(-c3cc[nH]n3)ccc12)C(=O)N1CCOCC1` (stereo not drawn) [Example 539], the figures for the EC50 in test [1] (setting [4]), in test [2] and in test [3] were 18.5 µM, over 100 µM and over 100 µM, respectively.

On to `N#C[C@H]1CCN(C(=O)Cn2cc3c(n2)c(N)nc2cc(-c4cc[nH]n4)ccc23)C1` [Example 540], for which the figures for the EC50 in test [1] (setting [4]), in test [2] and in test [3] were 3.13 µM, over 100 µM and over 100 µM, respectively.

Consider `NC(=O)Cn1cc2c(n1)c(N)nc1cc(-c3ccn[nH]3)ccc12` [Example 541], for which the EC50 in test [1] (setting [4]) was 0.65 µM; in test [2], over 100 µM; in test [3], over 100 µM.

For `COCCN(C)C(=O)Cn1cc2c(n1)c(N)nc1cc(-c3cc[nH]n3)ccc12` [Example 542], the EC50 in test [1] (setting [4]) was 1.58 µM; in test [2], over 100 µM; in test [3], over 100 µM.

Turning to `Nc1nc2cc(-c3cc[nH]n3)ccc2c2cn(CC(=O)N3CC(F)C3)nc12` [Example 543], the results for the EC50 in test [1] (setting [4]), in test [2] and in test [3] were 2.03 µM, over 100 µM and over 100 µM, respectively.

For the molecule `Nc1nc2cc(-c3cc[nH]n3)ccc2c2cn(CC(=O)N[C@@H]3CCOC3)nc12` [Example 544], the figures for the EC50 in test [1] (IL-1β production), in test [2] and in test [3] were 4.36 µM, over 100 µM and over 100 µM, respectively.

For `Nc1nc2cc(-c3cc[nH]n3)ccc2c2cn(CC(=O)N3CC(F)(F)C3)nc12` [Example 545], the results for the EC50 in test [1] (setting [4]), in test [2] and in test [3] were 1.79 µM, over 100 µM and over 100 µM, respectively.

In the case of `COC1CN(C(=O)Cn2cc3c(n2)c(N)nc2cc(-c4cc[nH]n4)ccc23)C1` [Example 546], the EC50 is 3.27 µM in test [1] (setting [4]), over 100 µM in test [2] and over 100 µM in test [3].

As to `CN(CCO)C(=O)Cn1cc2c(n1)c(N)nc1cc(-c3cc[nH]n3)ccc12` [Example 547], the EC50 was 5.3 µM in test [1] (setting [4]), over 100 µM in test [2] and over 100 µM in test [3].

Take `Nc1nc2cc(-c3cc[nH]n3)ccc2c2cn(CC(=O)NC3CCC3)nc12` [Example 548]: the EC50 in test [1] (setting [4]) is 0.78 µM; in test [2], over 100 µM; in test [3], over 100 µM.

In the case of `CN(C(=O)Cn1cc2c(n1)c(N)nc1cc(-c3cc[nH]n3)ccc12)[C@H]1CCOC1` [Example 549], the EC50 in test [1] (setting [4]) was 3.95 µM; in test [2], over 100 µM; in test [3] it was over 100 µM.

For the molecule `Nc1nc2cc(-c3cc[nH]n3)ccc2c2cn(CC(=O)NCC3CCOCC3)nc12` [Example 550], the EC50 in test [1] (setting [4]) was 5.01 µM; in test [2] it was over 100 µM; in test [3], over 100 µM.

With `N#CCn1cc2c(n1)c(N)nc1cc(-c3cc[nH]n3)ccc12` [Example 551], the EC50 in test [1] (setting [4]) was 2.24 µM; in test [2], over 100 µM; in test [3], over 100 µM.

Regarding `CN1CCN(C(=O)Cn2cc3c(n2)c(N)nc2cc(-c4cc[nH]n4)ccc23)CC1` [Example 552], the results for the EC50 in test [1] (setting [4]), in test [2] and in test [3] were 9.89 µM, over 100 µM and over 100 µM, respectively.

Take `CN(C)C(=O)Cn1cc2c(N)nc3cc(-n4cccn4)ccc3c2n1` [Example 553]: the EC50 in test [1] (setting [4]) was 2.11 µM; in test [2], over 100 µM; in test [3], over 100 µM.
